Legend:
[1] = Caco-2 cell permeability assay (A-B and B-A); format: in vitro ADME; details: human; for Papp A→B at 60 min, 10 μM: A-B direction; for Papp B→A at 40 min, 10 μM: B-A direction
Procedure: The following procedure was used to determine the ability of a test compound to cross Caco-2 cells (human intestinal epithelial cells derived from a colorectal adenocarcinoma). The cells were seeded at 1×10^5 cells/cm^2 in 96-well Multiscreen™ plates (Millipore). Permeability assays were performed with the cells at days 21-25 post-seeding. Cells are typically used for 15 consecutive passages in culture.
This assay can be performed in either the apical to basolateral (A−B) or basolateral to apical (B−A) direction. The test compound was prepared at 10 μM in HBSS-MES (pH 6.5) or HBSS-HEPES (pH 7.4) with a final DMSO concentration of 1%. The working solution was then centrifuged and the supernatant added to the donor side. The assay plate was incubated at 37° C. with gentle shaking for 60 min or 40 min for the A−B or B−A assay, respectively. Samples were aliquoted from the donor side at time zero and the end point, and from the receiver side at the end point.
Reference compounds, propranolol (highly permeable), labetalol (moderately permeable), ranitidine (poorly permeable), and colchicine (P-glycoprotein substrate) were included in each assay.
Samples are analyzed by HPLC-MS/MS using selected reaction monitoring. The HPLC system consists of a binary LC pump with autosampler, a C-18 column, and a gradient.
The apparent permeability coefficient (Papp) of the test compound (Equation 2) and its recovery (Equation 3) are calculated as follows: […]
wherein A is the surface area of the cell monolayer (0.11 cm^2), C is concentration of the test compound expressed as peak area, D denotes donor, and R is receiver. “0”, “mid,” and “end” denote time at zero, mid-point, and end of the incubation, respectively. At is the incubation time. V is the volume of the donor or receiver.
This is most likely due to non-specific binding or degradation.

Factor Xa = biological target: T1, Factor Xa (Homo sapiens, UniProt P00742); experiment: Dose response assay for protease inhibitors: Factor Xa; format: biochemical; details: ratio versus Factor XIa
T1 construct: Factor Xa; 0.2 μM in 50% glycerol (9.2 μg/mL)
Procedure: (§1) • Assay buffer: 20 mM Hepes, pH 7.4; 150 mM NaCl; 0.02% Tween 20 • Compounds: 10 mM stocks in DMSO • Substrate: 20 mM Glp-Pro-Arg-AMC, 25 mg/2.3 mL H2O (store at +4° C.) [Factor XIa, thrombin, and trypsin] • 20 mM Pro-Phe-Arg-AMC (Bachem I-1295), 25 mg/2.2 mL H2O or Boc-Leu-Gly-Arg-AMC (Bachem I-1105), 25 mg/2.07 mL H2O (store at +4° C.) [Factor Xa] • Enzyme: Factor XIa; 0.25 M in 50% glycerol (20 μg/mL) • Trypsin; 0.2 μM in 50% glycerol (4.8 μg/mL) • Thrombin; 0.2 μM in 50% glycerol (7.34 μg/mL) • Factor Xa; 0.2 μM in 50% glycerol (9.2 μg/mL)
(§2) • 1. Dilute the substrate to 100 μM in assay buffer (30 μL/6 mL). The enzyme is diluted to 0.5 nM just prior to use (12 L/6 mL for Factor XIa; 15 μL/6 mL for all of the rest.) • 2. Pipette 50 μL of substrate into each well of the 96 well (12×8) microtiter plate. (Column 1 is used as the 100% activity control and receives no compound, and Column 12 is the blank and receives no enzyme.) Add an additional 46 μL to column 2. • 3. Pipette 4 μL of each compound into the appropriate well in column 2 of the plate (unknowns assayed in triplicate, standard assayed in duplicate). The final compound concentration will be 1/50th of the stock. • 4. Serially two-fold dilute the compound by mixing the sample in column 2, removing 50 μL to the next well (column 3), mix and remove to column 4, etc. until column 11. After mixing column 11, remove 50 μL and discard. • 5. Pipette 50 μL of buffer into column 12. Initiate the reaction by adding 50 μL of enzyme solution to each well of columns 1-11 as rapidly as possible. • 6. Read the plate in a spectrophotometer (SpectraMax) at 30° C., wherein each well is measured every 60 s for 30 min. For Factor Xa assays, each well is measured every 1 min for a total of 60 min. • 7. For Factor XIa assays, the compounds are assayed, in duplicate, at 3 different starting concentrations, 20, 2, and 0.2 μM; 1:10, 1:100, and 1:1000 dilution of 10 mM stock or at 2, 0.2, and 0.02 μM; 1:100, 1:1000, and 1:10,000 dilution of 10 mM stock. Data for each concentration are combined for graphing and data fitting. • 8. Data can be used both for estimation of IC50 and for estimation of Kon.

human Factor XIa = human Factor XIa (Homo sapiens, UniProt P03951); experiment: Factor XIa enzyme inhibition assay (dose response, fluorogenic AMC substrate); format: biochemical; set-up: Enzyme: Factor XIa; details: purified enzyme; substrate 50 μM, enzyme 0.25 nM; read-out: hFXIa IC50
Outline: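 Fluorogenic assay in 20 mM Hepes pH 7.4, 150 mM NaCl, 0.02% Tween 20 with 0.25 nM enzyme and 50 μM Glp-Pro-Arg-AMC (final). Fluorescence read every minute for 30 min at 30 °C after serial two-fold compound dilution; IC50 from four-parameter Hill fit of dose-response curves.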

Thrombin = biological target: T2, Thrombin (Homo sapiens, UniProt P00734); experiment: Dose response assay for protease inhibitors: thrombin; format: biochemical; details: ratio versus Factor XIa
T2 construct: Thrombin; 0.2 μM in 50% glycerol (7.34 μg/mL)
Procedure: as §1, §2

Trypsin = biological target: T3, Trypsin (Bos taurus, UniProt P00760); experiment: Dose response assay for protease inhibitors: trypsin; format: biochemical; details: ratio versus Factor XIa
T3 construct: gene PRSS1
T3 sequence (P00760 24-246): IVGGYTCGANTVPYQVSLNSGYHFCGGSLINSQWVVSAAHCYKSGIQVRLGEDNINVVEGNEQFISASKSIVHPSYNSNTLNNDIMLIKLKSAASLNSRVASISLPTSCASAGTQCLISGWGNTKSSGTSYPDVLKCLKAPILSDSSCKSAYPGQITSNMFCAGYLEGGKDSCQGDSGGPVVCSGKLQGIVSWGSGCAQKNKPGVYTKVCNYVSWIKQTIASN
Procedure: as §1, §2

Chain of human Factor XIa (P03951 388-625 limits assumed): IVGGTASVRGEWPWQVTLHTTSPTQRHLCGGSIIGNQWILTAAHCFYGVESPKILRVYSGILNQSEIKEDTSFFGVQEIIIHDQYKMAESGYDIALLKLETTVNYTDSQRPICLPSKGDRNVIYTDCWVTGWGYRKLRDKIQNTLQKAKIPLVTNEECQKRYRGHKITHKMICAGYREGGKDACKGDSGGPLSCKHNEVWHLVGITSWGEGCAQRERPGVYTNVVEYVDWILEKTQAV
Chain of human Factor XIa (P03951 19-387 partner limits assumed): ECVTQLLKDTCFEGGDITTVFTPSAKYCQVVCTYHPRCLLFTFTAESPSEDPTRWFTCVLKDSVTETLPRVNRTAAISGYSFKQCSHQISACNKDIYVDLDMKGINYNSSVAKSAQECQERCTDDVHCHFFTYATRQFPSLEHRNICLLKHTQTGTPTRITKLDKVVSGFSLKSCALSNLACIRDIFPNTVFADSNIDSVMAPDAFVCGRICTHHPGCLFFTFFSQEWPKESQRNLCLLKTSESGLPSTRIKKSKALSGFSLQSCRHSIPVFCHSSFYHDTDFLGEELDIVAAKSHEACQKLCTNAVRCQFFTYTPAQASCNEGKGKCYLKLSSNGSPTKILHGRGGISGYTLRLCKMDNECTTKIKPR
T1 sequence (P00742 235-488 limits assumed): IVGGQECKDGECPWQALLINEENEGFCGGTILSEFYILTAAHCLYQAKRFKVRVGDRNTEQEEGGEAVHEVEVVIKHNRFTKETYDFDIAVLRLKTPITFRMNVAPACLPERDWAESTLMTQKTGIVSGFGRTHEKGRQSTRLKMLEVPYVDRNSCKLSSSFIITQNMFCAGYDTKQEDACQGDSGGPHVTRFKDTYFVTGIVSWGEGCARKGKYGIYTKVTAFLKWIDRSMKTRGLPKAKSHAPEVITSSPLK
T1 sequence (P00742 41-179 partner limits assumed): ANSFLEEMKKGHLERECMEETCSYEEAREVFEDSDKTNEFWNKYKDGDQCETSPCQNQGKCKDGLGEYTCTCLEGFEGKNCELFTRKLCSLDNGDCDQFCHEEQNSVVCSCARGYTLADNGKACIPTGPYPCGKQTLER

| Compound | Papp A→B at 60 min, 10 μM [1] [×10⁻⁶ cm/s] | Papp B→A at 40 min, 10 μM [1] [×10⁻⁶ cm/s] | FXa/FXIa (selectivity ratio) (Factor Xa) | IC50 (human Factor XIa) [nM] | Ratio: Thrombin/FXIa (Thrombin) | Ratio: Trypsin/FXIa (Trypsin) |
| --- | --- | --- | --- | --- | --- | --- |
| Cc1ccccc1N(C)C(=O)[C@@H]1[C@@H](Cc2ccnc(N)c2)C(=O)N1C(=O)N[C@@H](C1CCCCC1)C(F)(F)F [Compound 15] | 11 to 30 | ≤ 10 | H (“H” indicates 101-1000) | 10 to 100 | G (“G” indicates 1-100) | G (“G” indicates 1-100) |
| CN(C(=O)[C@@H]1[C@@H](Cc2ccnc(N)c2)C(=O)N1C(=O)N[C@@H](C1CCCCC1)C(F)(F)F)c1cccnc1 [Compound 17] | 11 to 30 | 11 to 30 | H (“H” indicates 101-1000) | 10 to 100 | G (“G” indicates 1-100) | G (“G” indicates 1-100) |
| CN(C(=O)[C@@H]1[C@@H](Cc2ccnc(N)c2)C(=O)N1C(=O)N[C@@H](C1CCCCC1)C(F)(F)F)c1ccncc1 [Compound 18] | 11 to 30 | 11 to 30 | I (“I” indicates >500) | < 10 | H (“H” indicates 101-1000) | G (“G” indicates 1-100) |
| CN(C(=O)[C@@H]1[C@@H](Cc2ccnc(N)c2)C(=O)N1C(=O)N[C@@H](C1CCCCC1)C(F)(F)F)c1cncnc1 [Compound 19] | 11 to 30 | 31 to 50 | H (“H” indicates 101-1000) | < 10 | G (“G” indicates 1-100) | G (“G” indicates 1-100) |
| CN(C(=O)[C@@H]1[C@@H](Cc2ccnc(N)c2)C(=O)N1C(=O)N[C@@H](C1CCCCC1)C(F)(F)F)c1ncccn1 [Compound 21] | 11 to 30 | ≤ 10 | I (“I” indicates >500) | < 10 | H (“H” indicates 101-1000) | G (“G” indicates 1-100) |
| CN(C(=O)[C@@H]1[C@@H](Cc2ccnc(N)c2)C(=O)N1C(=O)N[C@@H](C1CCCCC1)C(F)(F)F)c1cccc(F)c1 [Compound 22] | 11 to 30 | ≤ 10 | H (“H” indicates 101-1000) | < 10 | G (“G” indicates 1-100) | G (“G” indicates 1-100) |
| CCN(C(=O)[C@@H]1[C@@H](Cc2ccnc(N)c2)C(=O)N1C(=O)N[C@@H](C1CCCCC1)C(F)(F)F)c1ccccc1 [Compound 24] | 11 to 30 | ≤ 10 | H (“H” indicates 101-1000) | 10 to 100 | G (“G” indicates 1-100) | G (“G” indicates 1-100) |
| CC[C@@H](NC(=O)N1C(=O)[C@H](Cc2ccnc(N)c2)[C@H]1C(=O)N(C)c1ccncc1)C1CCCCC1 [Compound 25] | ≤ 10 | 31 to 50 | I (“I” indicates >500) | < 10 | I (“I” indicates >500) | G (“G” indicates 1-100) |
| CC[C@@H](NC(=O)N1C(=O)[C@H](Cc2ccnc(N)c2)[C@H]1C(=O)N(C)c1ccccc1)C1CCCCC1 [Compound 27] | 11 to 30 | 11 to 30 | I (“I” indicates >500) | < 10 | H (“H” indicates 101-1000) | G (“G” indicates 1-100) |
| CN(C(=O)[C@@H]1[C@@H](Cc2ccnc(N)c2)C(=O)N1C(=O)N[C@@H](C1CCCCC1)C1CC1)c1ccccc1 [Compound 36] | 31 to 50 | 11 to 30 | I (“I” indicates >500) | < 10 | H (“H” indicates 101-1000) | G (“G” indicates 1-100) |
| CC[C@@H](NC(=O)N1C(=O)[C@H](Cc2ccnc(N)c2)[C@H]1C(=O)N(CC)c1ncccn1)C1CCCCC1 [Compound 39] | 11 to 30 | 11 to 30 | I (“I” indicates >500) | < 10 | I (“I” indicates >500) | G (“G” indicates 1-100) |
| CC[C@@H](NC(=O)N1C(=O)[C@H](Cc2ccnc(N)c2)[C@H]1C(=O)N(C)c1ccncc1)c1ccccc1 [Compound 42] | ≤ 10 | 31 to 50 | I (“I” indicates >500) | < 10 | H (“H” indicates 101-1000) | G (“G” indicates 1-100) |
| CC[C@@H](NC(=O)N1C(=O)[C@H](Cc2ccnc(N)c2)[C@H]1C(=O)N(C)c1ccccc1)c1cccnc1 [Compound 44] | ≤ 10 | 31 to 50 | I (“I” indicates >500) | < 10 | G (“G” indicates 1-100) | G (“G” indicates 1-100) |
| CC[C@@H](NC(=O)N1C(=O)[C@H](Cc2ccnc(N)c2)[C@H]1C(=O)N(C)c1ccccc1)C1CC1 [Compound 46] | 11 to 30 | > 50 | H (“H” indicates 101-1000) | 10 to 100 | G (“G” indicates 1-100) | G (“G” indicates 1-100) |
| CN(C(=O)[C@@H]1[C@@H](Cc2ccnc(N)c2)C(=O)N1C(=O)N[C@@H](C1CC1)C(F)(F)F)c1ccncc1 [Compound 77] | ≤ 10 | 31 to 50 | H (“H” indicates 101-1000) | 10 to 100 | H (“H” indicates 101-1000) |  |
| CN(C(=O)[C@@H]1[C@@H](Cc2ccnc(N)c2)C(=O)N1C(=O)N[C@@H](C1CC1)C(F)(F)F)c1ncccn1 [Compound 78] | 11 to 30 | > 50 | I (“I” indicates >500) | 10 to 100 | H (“H” indicates 101-1000) |  |

From US20190315711A1 (eXIthera Pharmaceuticals, Inc., priority 2016, published 2019)
